How the values were obtained:
Format in all cases: in vivo
Solanum nigrum (SOLNI) [1] = test: Pre-emergence herbicide test, glasshouse, percentage damage; settings: rate 1000 g/ha, evaluated after 13 days
Protocol: (§1) Seeds of a variety of test species are sown in standard soil in pots (Lolium perenne (LOLPE), Solanum nigrum (SOLNI), Amaranthus retoflexus (AMARE), Setaria faberi (SETFA), Echinochloa crus-galli (ECHCG), Ipomoea hederacea (IPOHE)). After cultivation for one day (pre-emergence) or after 8 days cultivation (post-emergence) under controlled conditions in a glasshouse (at 24/16° C., day/night; 14 hours light; 65% humidity), the plants are sprayed with an aqueous spray solution derived from the formulation of the technical active ingredient in acetone/water (50:50) solution containing 0.5% Tween 20 (polyoxyethelyene sorbitan monolaurate, CAS RN 9005-64-5). Compounds are applied at 500 g/ha unless otherwise stated. The test plants are then grown in a glasshouse under controlled conditions in a glasshouse (at 24/16° C., day/night; 14 hours light; 65% humidity) and watered twice daily. After 13 days for pre and post-emergence, the test is evaluated for the percentage damage caused to the plant. The biological activities are shown in the following table on a five point scale (5=81-100%; 4=61-80%; 3=41-60%; 2=21-40%; 1=0-20%).

Lolium perenne (LOLPE) [2] = test: as above; settings: rate 1000 g/ha, evaluated after 13 days
Protocol: as §1

[3] = system: Amaranthus retoflexus (AMARE); test: as above; settings: rate 1000 g/ha, evaluated after 13 days
Protocol: as §1

[4] = system: Echinochloa crus-galli (ECHCG); test: as above; settings: rate 1000 g/ha, evaluated after 13 days
Protocol: as §1

[5] = system: Ipomoea hederacea (IPOHE); test: as above; settings: rate 1000 g/ha, evaluated after 13 days
Protocol: as §1

Setaria faberi (SETFA) [6] = test: as above; settings: rate 1000 g/ha, evaluated after 13 days
Protocol: as §1

Solanum nigrum (SOLNI) [7] = test: Post-emergence herbicide test, glasshouse, percentage damage; settings: 1000 g/ha, evaluated after 13 days
Protocol: as §1

Lolium perenne (LOLPE) [8] = test: as above; settings: 1000 g/ha, evaluated after 13 days
Protocol: as §1

[9] = system: Amaranthus retoflexus (AMARE); test: as above; settings: 1000 g/ha, evaluated after 13 days
Protocol: as §1

[10] = system: Echinochloa crus-galli (ECHCG); test: as above; settings: 1000 g/ha, evaluated after 13 days
Protocol: as §1

[11] = system: Ipomoea hederacea (IPOHE); test: as above; settings: 1000 g/ha, evaluated after 13 days
Protocol: as §1

Setaria faberi (SETFA) [12] = test: as above; settings: 1000 g/ha, evaluated after 13 days
Protocol: as §1

Compound | Pre-emergence Test SOLNI percentage damage (five point scale) (Solanum nigrum (SOLNI) [1]) | Pre-emergence Test LOLPE percentage damage (five point scale) (Lolium perenne (LOLPE) [2]) | Pre-emergence Test AMARE percentage damage (five point scale) [3] | Pre-emergence Test ECHCG percentage damage (five point scale) [4] | Pre-emergence Test IPOHE percentage damage (five point scale) [5] | Pre-emergence Test SETFA percentage damage (five point scale) (Setaria faberi (SETFA) [6]) | percentage damage caused to the plant, SOLNI (Solanum nigrum (SOLNI) [7]) | percentage damage caused to the plant, LOLPE (Lolium perenne (LOLPE) [8]) | percentage damage caused to the plant, AMARE [9] | percentage damage caused to the plant, ECHCG [10] | percentage damage caused to the plant, IPOHE [11] | percentage damage caused to the plant, SETFA (Setaria faberi (SETFA) [12])
N#Cc1ccc(Oc2ccccc2-n2cc(C(F)(F)F)cn2)nc1 [Compound A19] | 5 (5=81-100%) | 5 (5=81-100%) | 5 (5=81-100%) | 5 (5=81-100%) | 5 (5=81-100%) | 5 (5=81-100%) | 5 (5=81-100%) | 5 (5=81-100%) | 5 (5=81-100%) | 5 (5=81-100%) | 5 (5=81-100%) | 5 (5=81-100%)
Fc1cc(Br)cnc1Oc1cccc(F)c1-c1cc(C(F)F)no1 [Compound A20] | 3 (3=41-60%) | 5 (5=81-100%) | 4 (4=61-80%) | 5 (5=81-100%) | 3 (3=41-60%) | 5 (5=81-100%) | 5 (5=81-100%) | 4 (4=61-80%) | 5 (5=81-100%) | 4 (4=61-80%) | 5 (5=81-100%) | 4 (4=61-80%)
Fc1cc(C(F)(F)F)cnc1Oc1cccc(F)c1-c1cc(C(F)F)no1 [Compound A21] | 2 (2=21-40%) | 4 (4=61-80%) | 5 (5=81-100%) | 5 (5=81-100%) | 2 (2=21-40%) | 5 (5=81-100%) | 3 (3=41-60%) | 3 (3=41-60%) | 4 (4=61-80%) | 4 (4=61-80%) | 3 (3=41-60%) | 4 (4=61-80%)
O=[N+]([O-])c1cnc(Oc2cccc(F)c2-c2cc(C(F)F)no2)c(F)c1 [Compound A22] | 1 (1=0-20%) | 1 (1=0-20%) | 5 (5=81-100%) | 3 (3=41-60%) | 1 (1=0-20%) | 3 (3=41-60%) | 4 (4=61-80%) | 2 (2=21-40%) | 4 (4=61-80%) | 2 (2=21-40%) | 3 (3=41-60%) | 3 (3=41-60%)
N#Cc1cnc(Oc2cccc(F)c2-c2cc(C(F)F)no2)c(F)c1 [Compound A23] | 4 (4=61-80%) | 5 (5=81-100%) | 5 (5=81-100%) | 5 (5=81-100%) | 5 (5=81-100%) | 5 (5=81-100%) | 5 (5=81-100%) | 5 (5=81-100%) | 5 (5=81-100%) | 5 (5=81-100%) | 5 (5=81-100%) | 5 (5=81-100%)
